For one assay, the system named is Salmonella typhimurium. Kind of assay: Antibacterial activity against Salmonella Typhimurium. Type of assay: functional, Salmonella enterica subsp. enterica serovar Typhimurium. The settings on record: Salmonella enterica.
Assay [1] has as its system Staphylococcus aureus. Kind of assay: Antibacterial activity against Staphylococcus aureus SG511. Format: functional.
Assay [2] has as its system Escherichia coli. The assay is described as follows: Antibacterial activity against Escherichia coli TEM. Type of assay: functional.
The next assay deals with Klebsiella aerogenes. The assay is described as follows: Antibacterial activity against Klebsiella aerogenes 1522E. Type of assay: functional.
The next assay deals with Pseudomonas aeruginosa. Kind of assay: Antibacterial activity against Pseudomonas aeruginosa 9027. Format: functional.
The test system of assay [3] is Streptococcus pyogenes. Kind of assay: Antibacterial activity against Streptococcus pyogenes 308A. Type of assay: functional.
Assay [4] deals with Escherichia coli. Kind of assay: Antibacterial activity against Escherichia coli DC2. Format: functional.
Assay [5] deals with Staphylococcus aureus. The assay is described as follows: Antibacterial activity against Staphylococcus aureus 285. Type of assay: functional.
For the next assay, the system named is Enterobacter cloacae. The assay is described as follows: Antibacterial activity against Enterobactor cloacae 1321E. Type of assay: functional.
Assay [6] has as its system Streptococcus pyogenes. Kind of assay: Antibacterial activity against Streptococcus pyogenes 77A. Format: functional.

Broadly, the MIC is the least concentration at which growth counts as inhibited. Lower therefore signals a more susceptible organism.

Molecules are shown by their SMILES. Values after ≈ are worked out from the molar mass of the structure shown.

Turning to `CO/N=C(\CNS(C)(=O)=O)[C@@H]1C[C@H](SC2=C(C(=O)O)N3C(=O)[C@H]([C@@H](C)O)[C@H]3[C@H]2C)CN1`, the minimum inhibitory concentration (MIC) with Salmonella typhimurium was found to be 0.781 µg/mL (≈ 1.64 µM); with Staphylococcus aureus [1] it was 0.195 µg/mL (≈ 0.409 µM); with Escherichia coli [2] it was 0.195 µg/mL (≈ 0.409 µM); in the assay with Klebsiella aerogenes it was 0.781 µg/mL (≈ 1.64 µM); with Pseudomonas aeruginosa, 12.5 µg/mL (≈ 26.2 µM); in the assay with Streptococcus pyogenes [3] it was 0.098 µg/mL (≈ 0.206 µM). Also, the MIC against Escherichia coli [4] is 0.195 µg/mL (≈ 0.409 µM); in the assay on Staphylococcus aureus [5] it was 0.391 µg/mL (≈ 0.82 µM); with Enterobacter cloacae it was 0.391 µg/mL (≈ 0.82 µM); against Streptococcus pyogenes [6], 0.098 µg/mL (≈ 0.206 µM).
Consider `CO/N=C(\CNC(N)=O)[C@@H]1C[C@H](SC2=C(C(=O)O)N3C(=O)[C@H]([C@@H](C)O)[C@H]3[C@H]2C)CN1`, for which the MIC is 0.098 µg/mL (≈ 0.222 µM) with Salmonella typhimurium; 0.098 µg/mL (≈ 0.222 µM) with Staphylococcus aureus [1]; 0.049 µg/mL (≈ 0.111 µM) in the assay on Escherichia coli [2]; 0.195 µg/mL (≈ 0.442 µM) in the assay on Klebsiella aerogenes; 1.56 µg/mL (≈ 3.53 µM) in the assay with Pseudomonas aeruginosa; less than 0.01 µg/mL against Streptococcus pyogenes [3]. The MIC in the assay with Escherichia coli [4] worked out at 0.049 µg/mL (≈ 0.111 µM); against Staphylococcus aureus [5], 0.195 µg/mL (≈ 0.442 µM); against Enterobacter cloacae, 0.049 µg/mL (≈ 0.111 µM); against Streptococcus pyogenes [6], 0.013 µg/mL (≈ 0.0294 µM).
Consider `CCNS(=O)(=O)NC/C(=N\OC)[C@@H]1C[C@H](SC2=C(C(=O)O)N3C(=O)[C@H]([C@@H](C)O)[C@H]3[C@H]2C)CN1`, for which the MIC against Salmonella typhimurium is 0.025 µg/mL (≈ 0.0494 µM); against Staphylococcus aureus [1] it was 0.049 µg/mL (≈ 0.0969 µM); against Escherichia coli [2], 0.049 µg/mL (≈ 0.0969 µM); in the assay with Klebsiella aerogenes, 0.049 µg/mL (≈ 0.0969 µM); against Pseudomonas aeruginosa it was 3.12 µg/mL (≈ 6.17 µM); in the assay with Streptococcus pyogenes [3], less than 0.01 µg/mL. In addition, the MIC in the assay with Escherichia coli [4] is 0.013 µg/mL (≈ 0.0257 µM); against Staphylococcus aureus [5], 0.098 µg/mL (≈ 0.194 µM); in the assay on Enterobacter cloacae, 0.025 µg/mL (≈ 0.0494 µM); in the assay on Streptococcus pyogenes [6] it was less than 0.01 µg/mL.
Consider `CO/N=C(\CN)[C@@H]1C[C@H](SC2=C(C(=O)O)N3C(=O)[C@H]([C@@H](C)O)[C@H]3[C@H]2C)CN1`, for which the minimum inhibitory concentration (MIC) is 0.098 µg/mL (≈ 0.246 µM) in the assay on Salmonella typhimurium; 0.098 µg/mL (≈ 0.246 µM) against Staphylococcus aureus [1]; 0.195 µg/mL (≈ 0.489 µM) with Escherichia coli [2]; 0.195 µg/mL (≈ 0.489 µM) in the assay with Klebsiella aerogenes; 3.12 µg/mL (≈ 7.83 µM) in the assay with Pseudomonas aeruginosa; less than 0.01 µg/mL against Streptococcus pyogenes [3]. Besides, the MIC in the assay on Escherichia coli [4] is 0.049 µg/mL (≈ 0.123 µM); in the assay with Staphylococcus aureus [5] it was 0.195 µg/mL (≈ 0.489 µM); against Enterobacter cloacae it was 0.098 µg/mL (≈ 0.246 µM); against Streptococcus pyogenes [6], less than 0.01 µg/mL.
`CO/N=C(\CNS(=O)(=O)N(C)C)[C@@H]1C[C@H](SC2=C(C(=O)O)N3C(=O)[C@H]([C@@H](C)O)[C@H]3[C@H]2C)CN1`: the MIC is 0.195 µg/mL (≈ 0.386 µM) with Salmonella typhimurium; 0.195 µg/mL (≈ 0.386 µM) against Staphylococcus aureus [1]; 0.098 µg/mL (≈ 0.194 µM) in the assay on Escherichia coli [2]; 0.391 µg/mL (≈ 0.773 µM) against Klebsiella aerogenes; 6.25 µg/mL (≈ 12.4 µM) with Pseudomonas aeruginosa; 0.025 µg/mL (≈ 0.0494 µM) with Streptococcus pyogenes [3]. Moreover, the minimum inhibitory concentration (MIC) with Escherichia coli [4] turned out to be 0.098 µg/mL (≈ 0.194 µM); against Staphylococcus aureus [5], 0.195 µg/mL (≈ 0.386 µM); in the assay with Enterobacter cloacae, 0.195 µg/mL (≈ 0.386 µM); against Streptococcus pyogenes [6] it was 0.013 µg/mL (≈ 0.0257 µM).

These data come from ChEMBL document CHEMBL1143804, “Synthesis and antibacterial evaluation of 1beta-methyl-2-[5-(1-methoxyimino-2-substituted sulfonamide ethyl)pyrrolidin-3-ylthio]carbapenems and their related compounds” (2007).
